Assay results taken from patent publication US20110165578A1, “METHODS FOR DETECTING AND QUANTIFYING OVERSULFATED GLYCOSAMINOGLYCANS” (priority 2008, published 2011).

Experiments:
[1] = target: T1, Taq polymerase (Thermus aquaticus, UniProt P19821); assay: Taq polymerase inhibition by Taqman real time PCR (gene amplification, CT values); type: biochemical; conditions: for Taq polymerase activity / 18S amplification: spiked into heparin and treated with heparinase; for gene amplification (polymerase activity) after treatment with heparinase: heparinase 2 hours at room temperature, OS-CS 30 ng, heparin 25 mU of lot C1 (FIG. 2B); for 18S amplification: same conditions
T1 construct: purchased ABI (Applied Biosystems)
Method: Heparinase treatment: Heparin was treated with heparinase I (1:1 unit:unit reaction unless otherwise noted) for 2 hours at 25° C. in a buffer containing 4 mM Tris-HCl pH 7.5, 0.8 mM CaCl, 10 mM NaCl, and 20 U of RNase inhibitor (ABI). After treatment, the heparin was diluted to a final volume of 50 μl and serial dilutions were prepared in DEPC water as specified. Where indicated, other GAGs and oversulfated GAGs (dermatan sulfate, chondroitin sulfate, and heparan sulfate) were treated with heparinase under the same conditions as described above.
Screening Assay: cDNA was generated using total RNA from MDA-MB-231 human breast cancer cell line extracted using Trizol reagent (Invitrogen, Carlsbad, Calif.) as per manufacturer's instructions. For each cDNA reaction 1 μg total RNA was reverse transcribed using High Capacity cDNA Reverse Transcription Kit (Applied Biosystems, Foster City Calif.) in a volume of 20 μl and further diluted in DEPC water to 100 μl final volume. The concentration of cDNA was determined using Quant-iT OliGreen ssDNA Reagent (Invitrogen). For each Taqman® reaction, 25 ng of cDNA in a 2.5 μl volume were mixed with 2.5 μl of each dilution of heparinase-treated heparin or hypersulfated GAGs and then subjected to real time PCR using Taqman® Gene Expression assay for human 18S rRNA (20×) and 2× Universal PCR master mix (ABI) in a 25 μl reaction. Amplification levels of 18S are expressed as CT values. CT values represent the cycle at which amplification of a target gene is first detected. The amplification was analyzed using manual settings with a threshold value of 0.1 and the SDS2.3 software from ABI. […] Quantification of the oversulfated GAGs was performed by establishing a cutoff at the minimum concentration of synthetic OS-CS that completely blocks Taq polymerase (500 pg) and tittering all the samples until the activity of Taq polymerase was restored.
Real time-PCR (Taqman® PCR) is a highly sensitive method for detecting changes in gene expression. Gene amplification depends on a thermostable DNA polymerase from Thermus aquaticus (Taq pol). […] Shown in FIG. 1 are the levels of 18S amplification from 25 ng cDNA derived from MDA-MB-231 cells as determined by Taqman® PCR. While the 18S rRNA is used here, any RNA or DNA template is suitable. Addition of progressively higher amounts of heparin induces a corresponding reduction in Taq polymerase activity that can be monitored by assessing 18S cDNA amplification. […] Treatment of heparin with 1 unit of heparinase for 2 hrs at 25° C. overcomes the blocking activity of up to 50 mU of heparin (FIG. 1A).
To compare the use of different template sequences to measure the inhibition of Taq polymerase activity by oversulfated GAGs, heparin preparations were processed and RNA was isolated as detailed in Example 1, except that cDNAs were generated and amplified from the Actin B and GAPDH RNA sequences, in addition to the 18S rRNA.
Table 1 compares the effects of different oversulfated GAGs on the amplification of 18S, Actin B, and GAPDH sequences by Taq polymerase, as shown by mean cycle thresholds (CT) of amplification detection. The CT value indicating no inhibition of Taq polymerase activity varied slightly by template, but was maximally <20. […] Addition of progressively higher amounts of over sulfated chondroitin sulfate (OS-CS), oversulfated dermatan sulfate (OS-DS), and oversulfated heparan sulfate (OS-HS) to cDNA induced a corresponding reduction in Taq polymerase amplification of 18S, Actin B, and GAPDH.

[2] = test system: porcine model; conditions: 5 mg/kg i.v. in bolus; cited from earlier work
[3] = any concentration tested (0-125 ng)

T1 sequence (P19821 whole entry): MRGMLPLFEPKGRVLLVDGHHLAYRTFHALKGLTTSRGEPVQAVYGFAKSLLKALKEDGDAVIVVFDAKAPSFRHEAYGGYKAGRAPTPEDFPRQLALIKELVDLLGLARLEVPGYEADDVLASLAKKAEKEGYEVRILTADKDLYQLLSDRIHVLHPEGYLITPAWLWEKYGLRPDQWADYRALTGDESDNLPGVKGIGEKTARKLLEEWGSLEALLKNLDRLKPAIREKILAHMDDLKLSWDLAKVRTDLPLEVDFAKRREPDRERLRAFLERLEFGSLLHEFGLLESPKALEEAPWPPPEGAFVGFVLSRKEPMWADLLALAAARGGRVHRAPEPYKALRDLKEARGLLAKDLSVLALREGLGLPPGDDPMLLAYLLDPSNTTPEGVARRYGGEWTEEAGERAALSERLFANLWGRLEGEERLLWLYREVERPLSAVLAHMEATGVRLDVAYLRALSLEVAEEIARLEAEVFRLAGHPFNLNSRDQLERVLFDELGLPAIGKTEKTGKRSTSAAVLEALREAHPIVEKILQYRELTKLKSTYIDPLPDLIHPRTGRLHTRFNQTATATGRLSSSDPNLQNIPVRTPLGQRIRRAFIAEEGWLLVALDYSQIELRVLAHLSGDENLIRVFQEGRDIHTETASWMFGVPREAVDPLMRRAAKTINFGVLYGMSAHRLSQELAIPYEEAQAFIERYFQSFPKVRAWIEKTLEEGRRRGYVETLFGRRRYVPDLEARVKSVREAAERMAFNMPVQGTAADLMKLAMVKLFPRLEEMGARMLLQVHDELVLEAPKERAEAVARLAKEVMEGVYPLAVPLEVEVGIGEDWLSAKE

Substance: Chondroitin sulfate E [CS-E]
- Taq polymerase activity ([1]; highest concentration tested (125 ng)): trace of inhibitory effect

Substance: Chondroitin sulfate type A [CS-A]
- Taq polymerase activity [1, 3]: did not inhibit

Substance: Heparan sulfate [HS]
- mean cycle threshold (CT) of amplification detection ([1]; 18S template, 8.3 ng): 13.62
- mean cycle threshold (CT) of amplification detection ([1]; 18S template, 25 ng): 13.66
- mean cycle threshold (CT) of amplification detection ([1]; 18S template, 62.5 ng): 13.69
- mean cycle threshold (CT) of amplification detection ([1]; 18S template, 125 ng): 13.96
- mean cycle threshold (CT) of amplification detection ([1]; 18S template, 250 ng): 14.36
- mean cycle threshold (CT) of amplification detection ([1]; Actin B template, 25 ng): 18.36
- mean cycle threshold (CT) of amplification detection ([1]; GAPDH template, 8.3 ng): 17.68
- mean cycle threshold (CT) of amplification detection ([1]; GAPDH template, 25 ng): 18.37
- Taq polymerase amplification of any of the tested templates (18S, Actin B, GAPDH) ([1]; at comparable concentrations): did not inhibit
- Taq polymerase activity [1, 3]: did not inhibit

Substance: dermatan sulfate [DS]
- Taq polymerase activity [1, 3]: did not inhibit

Substance: heparin
- amount of heparin whose blocking activity is overcome by heparinase treatment ([1]; 1 unit of heparinase, 2 hrs at 25° C., 18S (FIG. 1A)): up to 50 mU
- gene amplification (polymerase activity) after treatment with heparinase [1]: restores gene amplification

Substance: oversulfated chondroitin sulfate [OS-CS]
- reproduction of the clinical syndrome (adverse events) [2]: partially reproduce the clinical syndrome
- amount that completely blocked Taq polymerase mediated 18S cDNA amplification ([1]; 18S template, 25 ng cDNA (FIG. 1C)): 500 pg
- mean cycle threshold (CT) of amplification detection ([1]; 18S template, 0.08 ng added to cDNA): 13.81
- mean cycle threshold (CT) of amplification detection ([1]; 18S template, 0.25 ng): 14.38
- mean cycle threshold (CT) of amplification detection ([1]; 18S template, 0.5 ng): 18.89
- mean cycle threshold (CT) of amplification detection ([1]; 18S template, 0.75 ng): 31.20
- mean cycle threshold (CT) of amplification detection ([1]; 18S template, 1 ng): 40.00
- mean cycle threshold (CT) of amplification detection ([1]; 18S template, 1.25 ng): 40.00
- mean cycle threshold (CT) of amplification detection ([1]; Actin B template, 0.08 ng): 18.48
- mean cycle threshold (CT) of amplification detection ([1]; Actin B template, 0.25 ng): 26.89
- mean cycle threshold (CT) of amplification detection ([1]; Actin B template, 0.5 ng): 38.84
- mean cycle threshold (CT) of amplification detection ([1]; Actin B template, 0.75 ng): 40.00
- mean cycle threshold (CT) of amplification detection ([1]; Actin B template, 1 ng): 40.00
- mean cycle threshold (CT) of amplification detection ([1]; Actin B template, 1.25 ng): 40.00
- mean cycle threshold (CT) of amplification detection ([1]; GAPDH template, 0.08 ng): 17.22
- mean cycle threshold (CT) of amplification detection ([1]; GAPDH template, 0.25 ng): 25.13
- mean cycle threshold (CT) of amplification detection ([1]; GAPDH template, 0.5 ng): 40.00
- mean cycle threshold (CT) of amplification detection ([1]; GAPDH template, 0.75 ng): 40.00
- mean cycle threshold (CT) of amplification detection ([1]; GAPDH template, 1 ng): 40.00
- mean cycle threshold (CT) of amplification detection ([1]; GAPDH template, 1.25 ng): 40.00
- limit of detection in heparin ([1]; calculated from 500 pg block and heparin potency 6.25 μg/U): 0.16 % (w/w)
- gene amplification (polymerase activity) after treatment with heparinase [1]: not
- 18S amplification [1]: significantly reduced

Substance: oversulfated dermatan sulfate [OS-DS]
- mean cycle threshold (CT) of amplification detection ([1]; 18S template, 0.3 ng): 14.13
- mean cycle threshold (CT) of amplification detection ([1]; 18S template, 0.9 ng): 18.29
- mean cycle threshold (CT) of amplification detection ([1]; 18S template, 2.7 ng): 40.00
- mean cycle threshold (CT) of amplification detection ([1]; 18S template, 8.3 ng): 40.00
- mean cycle threshold (CT) of amplification detection ([1]; 18S template, 25 ng): 40.00
- mean cycle threshold (CT) of amplification detection ([1]; Actin B template, 0.3 ng): 25.45
- mean cycle threshold (CT) of amplification detection ([1]; Actin B template, 0.9 ng): 31.85
- mean cycle threshold (CT) of amplification detection ([1]; Actin B template, 2.7 ng): 40.00
- mean cycle threshold (CT) of amplification detection ([1]; Actin B template, 8.3 ng): 40.00
- mean cycle threshold (CT) of amplification detection ([1]; Actin B template, 25 ng): 40.00
- mean cycle threshold (CT) of amplification detection ([1]; GAPDH template, 0.3 ng): 24.76
- mean cycle threshold (CT) of amplification detection ([1]; GAPDH template, 0.9 ng): 39.12
- mean cycle threshold (CT) of amplification detection ([1]; GAPDH template, 2.7 ng): 40.00
- mean cycle threshold (CT) of amplification detection ([1]; GAPDH template, 8.3 ng): 40.00
- mean cycle threshold (CT) of amplification detection ([1]; GAPDH template, 25 ng): 40.00
- 18S amplification [1]: significantly reduced

Substance: oversulfated heparan sulfate [OS-HS]
- mean cycle threshold (CT) of amplification detection ([1]; 18S template, 0.3 ng): 14.49
- mean cycle threshold (CT) of amplification detection ([1]; 18S template, 0.9 ng): 26.00
- mean cycle threshold (CT) of amplification detection ([1]; 18S template, 2.7 ng): 40.00
- mean cycle threshold (CT) of amplification detection ([1]; 18S template, 8.3 ng): 40.00
- mean cycle threshold (CT) of amplification detection ([1]; 18S template, 25 ng): 40.00
- mean cycle threshold (CT) of amplification detection ([1]; Actin B template, 0.3 ng): 27.12
- mean cycle threshold (CT) of amplification detection ([1]; Actin B template, 0.9 ng): 40.00
- mean cycle threshold (CT) of amplification detection ([1]; Actin B template, 2.7 ng): 40.00
- mean cycle threshold (CT) of amplification detection ([1]; Actin B template, 8.3 ng): 40.00
- mean cycle threshold (CT) of amplification detection ([1]; GAPDH template, 0.3 ng): 25.98
- mean cycle threshold (CT) of amplification detection ([1]; GAPDH template, 0.9 ng): 40.00
- mean cycle threshold (CT) of amplification detection ([1]; GAPDH template, 2.7 ng): 40.00
- mean cycle threshold (CT) of amplification detection ([1]; GAPDH template, 8.3 ng): 40.00
- mean cycle threshold (CT) of amplification detection ([1]; GAPDH template, 25 ng): 40.00
- 18S amplification [1]: significantly reduced
